Source: paper PMC10781884 (Computational and Structural Biotechnology Journal, 2023)
Ends that are not written are not given here.

Experiments:
Pseudomonas fluorescens = assay: Bactericidal activity of MPEG1 peptides, plate count; type: cell-based; details: peptide 20 µM, 4 h
Micrococcus luteus = assay: Minimum inhibitory and minimum bactericidal concentrations; type: cell-based; details: bacterium not named in the method sentence; Fig. 6 uses Micrococcus luteus

## RRHKSVKRDSRGLT [Nv]
Pseudomonas fluorescens
  effect on the propagation of P. fluorescens: slightly enhance the propagation

## RKWRSKRKQKSKKSSQRYM [Aq-2]
Micrococcus luteus
  minimum bactericidal concentrations (MBCs): 40 µM

## VKRRRRLAGFRTVRGY [Sc]
Micrococcus luteus
  minimum bactericidal concentrations (MBCs): 20 µM

## RRNRRRSRSSLSPTTSN [Aj-2]
Pseudomonas fluorescens
  effect on the propagation of P. fluorescens: slightly enhance the propagation

## MKRRRKFSHFSFKRGY [Dr-2]
Micrococcus luteus
  minimum bactericidal concentrations (MBCs): 10 µM

## KCFLRRRRSRA [Bc]
Micrococcus luteus
  minimum bactericidal concentrations (MBCs): 20 µM
